# What was measured:
# fat in the blood = test: Fat in the blood in cardiovascular patients (hypocholesterinemic action); assay type: in vivo; details: 3rd month, 30 mg/day intramuscular
# Experimental: (§1) Hereunder we expose the clinical results obtained after the administration during three months of the 2,4,6-triiodophenol in 200 cardiovascular patients.
# (§2) Sick persons were divided in 4 groups; (1) 50 patients with cerebral vascular insufficiency, (2) 50 patients with coronary insufficiency, (3) 50 patients with hepatic insufficiency and (4) 50 patients with peripheral vascular insufficiency of the lower extremities. All these persons received an intramuscular administration, a dosage of 30 mg/day of 2,4,6-triiodophenol, carrying out controls at the first, second and third month of all angiohemodynamic parameters, supposing a total of 600 controls (150 per each group after the three months).
# vascular surface = test: Vascular caliber by echo-Doppler in cardiovascular patients (vasodilatory action); assay type: in vivo; details: 30 mg/day intramuscular
# Text: (§3) The technology used to show the hemodynamic changes was of the non-invasivetype, as in this way experiments can be repeated and are completely innoxious for the patient. Of all the non-invasive methods of diagnosis we selected the most reliable of actual conditions, which is the method of ultrasounds (echo and Doppler's effects). The bidimensional echocardiography in real time, combined with pulsatile Doppler and the bidimensional vascular echography combined with pulsatile Doppler hemodynamic, are actually the two most reliable non-invasive techniques for the study of the anatomic changes and macroscopic hemodynamics with regard to the cardiovascular apparatus. That's why we used for the study of the clinical effects of the 2,4,6-triiodophenol an echo-Doppler trade mark ATL (Mark V), being the transmission frequency of 3 MHz, as well as a continuous Doppler trade mark SONICAID of 4 and 8 MHz.
# (§4) Patients were divided in four statistically acceptable groups (50 in each group), comparing the results obtained with this medicament before, during and after the treatment.
# (§5) Methodologically there are practiced echographical cuts in real time of the heart, big vases, supra-aortic trunks, abdominal aorta, portal and caval systems and iliac and femoral arteries, obtaining fluxmetric samples Doppler in all the mentioned cardiac cavities and blood vessels to study the sense of the flow, outflow (stream) or volume of flow and the hemodynamic features of the sanguineous flow.
# as §1, §2
# [1] = tested on: arthrosis and atherosclerosis patients; test: Summary of 175 clinic cases treated; assay type: in vivo
# Text: Summary of 175 clinic cases treated with 2,4,6-triiodophenol.
# [2] = tested on: granuloma formed around cotton implant; test: Cotton implant granuloma test; assay type: in vivo, rats; details: 72 hours
# Experimental: (B) To a group of 10 rats of about 200-225 g is implanted at the dorsal zone, subcutaneously, balled cotton (about 9 mg) impregnated and afterwards dried with a solution of medicamentous substance and which amount is known.
# We use as reference Dexamethasone and controls without medicament.
# After 72 hours, once the animal is sacrificed, the granuloma formed around the implant is extracted and weighed, after drying at 100° C.
# The antiinflammatory reduces the weight of the granuloma.
# Carrageenin leg oedema = Carrageenin leg oedema test; assay type: in vivo, white rats; details: for inhibition at 5 mg/kg: Rattus norvegicus, 5 mg/kg oral
# Experimental: (A) The antiinflammatory action is shown in white rats, of a weight of about 200-225 g, having provoked in these animals the leg oedema by means of an injection in the sole of the foot of 0.1 ml of a 1% Carrageenin solution.
# One control group of ten animals, another the same medicated with indomethacin via oral at 30 mg/kg, in suspension in a carboxymethylcellulose solution, another group of ten rats, medicated with triiodophenol in oral solution at 5 mg/kg, another group medicated with triioodophenol at 1 mg/kg, injected via intramuscular and another group medicated with triiodophenol at 0.5 mg/kg via intramuscular. All medications are administered simultaneously to the formation of Edema.
# The volume of the same is measured at 0 hours, 3 hours, 4 hours, 5 hours and 6 hours with a mercury Plestimograph.
# cardiac contractility = test: Cardiac contractility in cardiovascular patients (inotropic effect); assay type: in vivo; details: 30 mg/day intramuscular
# Text: as §3, §4, §5, §1, §2
# Solubility = assay type: physicochemical
# [3] = cerebral atherosclerosis, 37 patients
# [4] = cervical arthrosis, 34 patients
# [5] = obliterant atherosclerosis, 14 patients
# [6] = vertebral arthrosis, 56 patients
structure (smiles),measurement,setting,value
"Oc1c(I)cc(I)cc1I [2,4,6-triiodophenol]","Cholesterol, variation",fat in the blood,-15%
same,"Triglycerides, variation",fat in the blood,-12%
same,"Vascular caliber, abdominal aorta, variation (Δ %)",vascular surface; 1st month,+6%
same,"Vascular caliber, caval iliac artery, variation (Δ %)",vascular surface; 1st month,+8%
same,"Vascular caliber, portal carotid aorta, variation (Δ %)",vascular surface; 1st month,+11%
same,"Vascular caliber, portal system, variation (Δ %)",vascular surface; 1st month,-13%
same,"Vascular caliber, postcaval system, variation (Δ %)",vascular surface; 1st month,-9%
same,"Vascular caliber, thoracic aorta, variation (Δ %)",vascular surface; 1st month,+3%
same,"Vascular caliber, abdominal aorta, variation (Δ %)",vascular surface; 2nd month,+11%
same,"Vascular caliber, caval iliac artery, variation (Δ %)",vascular surface; 2nd month,+12%
same,"Vascular caliber, portal carotid aorta, variation (Δ %)",vascular surface; 2nd month,+12%
same,"Vascular caliber, portal system, variation (Δ %)",vascular surface; 2nd month,-23%
same,"Vascular caliber, postcaval system, variation (Δ %)",vascular surface; 2nd month,-14%
same,"Vascular caliber, thoracic aorta, variation (Δ %)",vascular surface; 2nd month,+7%
same,"Vascular caliber, abdominal aorta, variation (Δ %)",vascular surface; 3rd month,+13%
same,"Vascular caliber, caval iliac artery, variation (Δ %)",vascular surface; 3rd month,+15%
same,"Vascular caliber, portal carotid aorta, variation (Δ %)",vascular surface; 3rd month,+13%
same,"Vascular caliber, portal system, variation (Δ %)",vascular surface; 3rd month,-26%
same,"Vascular caliber, postcaval system, variation (Δ %)",vascular surface; 3rd month,-13%
same,"Vascular caliber, thoracic aorta, variation (Δ %)",vascular surface; 3rd month,+9%
same,"% obtained results, B. (good)",[1]; [3],"6,25%"
same,"% obtained results, E. (excellent)",[1]; [3],"81,25%"
same,"% obtained results, N. (null)",[1]; [3],"3,15%"
same,"% obtained results, R. (regular)",[1]; [3],"9,35%"
same,"% obtained results, B. (good)",[1]; [4],"3,22%"
same,"% obtained results, E. (excellent)",[1]; [4],"90,34%"
same,"% obtained results, N. (null)",[1]; [4],"3,22%"
same,"% obtained results, R. (regular)",[1]; [4],"3,22%"
same,"% obtained results, B. (good)","[1]; hip arthrosis, 13 patients","23,10%"
same,"% obtained results, B. (good)","[1]; knee arthrosis, 16 patients","12,5%"
same,"% obtained results, E. (excellent)","[1]; knee arthrosis, 16 patients","81,25%"
same,"% obtained results, R. (regular)","[1]; knee arthrosis, 16 patients","6,25%"
same,"% obtained results, B. (good)","[1]; lumbar arthrosis, 4 patients",25%
same,"% obtained results, E. (excellent)","[1]; lumbar arthrosis, 4 patients",50%
same,"% obtained results, R. (regular)","[1]; lumbar arthrosis, 4 patients",25%
same,"% obtained results, E. (excellent)","[1]; obliterant arthrosis, 1 patient",100%
same,"% obtained results, B. (good)",[1]; [5],"7,15%"
same,"% obtained results, E. (excellent)",[1]; [5],"92,85%"
same,"(B) Good result, % of patients",[1]; total 175 patients,"7,43%"
same,"(B) Good result, number of patients",[1]; total 175 patients,13
same,"(E) Excellent result, % of patients",[1]; total 175 patients,"82,86%"
same,"(E) Excellent result, number of patients",[1]; total 175 patients,145
same,"(N) Null result, % of patients",[1]; total 175 patients,"1,71%"
same,"(N) Null result, number of patients",[1]; total 175 patients,3
same,"(R) Regular result, % of patients",[1]; total 175 patients,"8,00%"
same,"(R) Regular result, number of patients",[1]; total 175 patients,14
same,"% obtained results, B. (good)",[1]; [6],"10,42%"
same,"% obtained results, E. (excellent)",[1]; [6],"83,33%"
same,"% obtained results, R. (regular)",[1]; [6],"6,25%"
same,% Reduction of the granuloma (Average),[2]; 100 micrograms per implant,19%
same,% Reduction of the granuloma (Average),[2]; 200 micrograms per implant,28%
same,% Reduction of the granuloma (Average),[2]; 400 micrograms per implant,44%
same,% inhibition (oedema),"Carrageenin leg oedema; 0,5 mg/kg inj. (intramuscular), 3 hours",20%
same,% inhibition (oedema),"Carrageenin leg oedema; 0,5 mg/kg inj. (intramuscular), 4 hours",42%
same,% inhibition (oedema),"Carrageenin leg oedema; 0,5 mg/kg inj. (intramuscular), 5 hours",49%
same,% inhibition (oedema),"Carrageenin leg oedema; 0,5 mg/kg inj. (intramuscular), 6 hours",60%
same,% inhibition (oedema),"Carrageenin leg oedema; 1 mg/kg inj. (intramuscular), 4 hours",66%
same,% inhibition (oedema),"Carrageenin leg oedema; 1 mg/kg inj. (intramuscular), 5 hours",75%
same,% inhibition (oedema),"Carrageenin leg oedema; 1 mg/kg inj. (intramuscular), 6 hours",82%
same,inhibition at 5 mg/kg,Carrageenin leg oedema; 3 hours,43%
same,inhibition at 5 mg/kg,Carrageenin leg oedema; 4 hours,50%
same,inhibition at 5 mg/kg,Carrageenin leg oedema; 5 hours,57%
same,inhibition at 5 mg/kg,Carrageenin leg oedema; 6 hours,65%
same,"Ejection fraction, variation (Δ %)",cardiac contractility; 1st month,"-9,1%"
same,"Ejection volume, variation (Δ %)",cardiac contractility; 1st month,-9%
same,"Telediastolic volume, variation (Δ %)",cardiac contractility; 1st month,-3%
same,"Telesystolic volume, variation (Δ %)",cardiac contractility; 1st month,+8%
same,"Ejection fraction, variation (Δ %)",cardiac contractility; 2nd month,"-8,8%"
same,"Ejection volume, variation (Δ %)",cardiac contractility; 2nd month,"-8,4%"
same,"Telediastolic volume, variation (Δ %)",cardiac contractility; 2nd month,-5%
same,"Telesystolic volume, variation (Δ %)",cardiac contractility; 2nd month,+11%
same,"Ejection fraction, variation (Δ %)",cardiac contractility; 3rd month,"-8,6%"
same,"Ejection volume, variation (Δ %)",cardiac contractility; 3rd month,-8%
same,"Telediastolic volume, variation (Δ %)",cardiac contractility; 3rd month,-6%
same,"Telesystolic volume, variation (Δ %)",cardiac contractility; 3rd month,+13%
same,Solubility in alkali solutions,Solubility; alkali solutions,soluble
same,Solubility in chloroform and dichloromethane,Solubility; chloroform and dichloromethane,very soluble
same,Solubility in organic dissolvents,"Solubility; ethylic and propylic alcohols, acetone and sulfuric ether",somewhat soluble
same,Solubility in water,Solubility; water,not very soluble

# — US4727090A, “Process for preparing and therapeutical applications of the 2,4,6-triiodophenol” (Bislak, S.A., priority 1983, dated 1988)
